Where two headings read alike, the source gives them in different places.
Molecular target: T1, full-length beta-Catenin (Uniprot ID P35222) (Homo sapiens, UniProt P35222)
T1 construct: 10 nM full-length beta-Catenin (Uniprot ID P35222)
T1 sequence (P35222 1-781): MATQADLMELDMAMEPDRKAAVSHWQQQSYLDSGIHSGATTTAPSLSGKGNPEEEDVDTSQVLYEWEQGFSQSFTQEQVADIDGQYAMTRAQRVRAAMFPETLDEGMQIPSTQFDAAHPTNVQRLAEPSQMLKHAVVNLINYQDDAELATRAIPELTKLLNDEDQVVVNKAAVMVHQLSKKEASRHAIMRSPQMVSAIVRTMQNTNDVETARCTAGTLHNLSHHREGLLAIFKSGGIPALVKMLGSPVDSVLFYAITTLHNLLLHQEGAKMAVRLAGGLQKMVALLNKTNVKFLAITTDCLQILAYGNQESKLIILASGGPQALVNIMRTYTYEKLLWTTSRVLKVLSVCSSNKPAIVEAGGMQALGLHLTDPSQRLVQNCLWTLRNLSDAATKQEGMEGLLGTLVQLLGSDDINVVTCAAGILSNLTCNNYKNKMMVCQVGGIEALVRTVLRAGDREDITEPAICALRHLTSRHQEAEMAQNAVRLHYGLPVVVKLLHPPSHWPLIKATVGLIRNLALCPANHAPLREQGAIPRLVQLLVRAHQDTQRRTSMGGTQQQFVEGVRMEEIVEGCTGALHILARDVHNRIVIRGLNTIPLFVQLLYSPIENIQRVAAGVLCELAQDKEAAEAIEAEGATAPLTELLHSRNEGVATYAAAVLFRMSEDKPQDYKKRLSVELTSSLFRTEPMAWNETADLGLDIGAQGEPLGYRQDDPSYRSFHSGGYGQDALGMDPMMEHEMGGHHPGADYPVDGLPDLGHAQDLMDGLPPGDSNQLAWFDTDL
Assay: Fluorescence polarization IC50 (beta-catenin / 5FAM-TCF4 10-53 competition)
Assay type: binding

[1] = fluorescence polarization; read-out: beta-Catenin FP IC50

Structure (SMILES)	IC50 [1] [nM]	IC50 (read-out: beta-Catenin FP IC50; fluorescence polarization) [nM]	IC50 (fluorescence polarization, beta-catenin; read-out: FP EC50) [nM]
CC(=O)N1CCC[C@]12CC=CCCCC1(CCCC=CCCCOC(=O)N3CC[C@@](C(=O)N[C@@H](Cc4ccccc4)C(=O)N[C@@H](Cc4csc5ccccc45)C(=O)N[C@@H](CCC(N)=O)C(N)=O)(C3)NC(=O)[C@H]([C@@H](C)O)NC(=O)[C@H](Cc3ccccc3)NC(=O)[C@H](C)NC(=O)[C@H](C)NC(=O)[C@H](Cc3c[nH]cn3)NC(=O)[C@H](CC(=O)O)NC1=O)NC(=O)[C@H](CC(C)(C)C)NC(=O)[C@H](CCO)NC2=O (stereo partly drawn) [I-2438, Ac-PL3-Hse-Npg-B5-Asp-His-Ala-Ala-Phe-Thr-PyrS2-Phe-BztA-Gln-NH2]	1760		
CC(=O)N1CCC[C@]12CC=CCCCC1(CCCC=CCCCOC(=O)N3CC[C@@](C(=O)N[C@@H](Cc4ccsc4)C(=O)N[C@@H](Cc4csc5ccccc45)C(=O)N[C@@H](CCC(N)=O)C(N)=O)(C3)NC(=O)[C@H](CC(C)C)NC(=O)[C@H](Cc3ccccc3)NC(=O)[C@H](CCCCNC(=O)C34CC5(C)CC(C)(CC(C)(C5)C3)C4)NC(=O)[C@H](C)NC(=O)[C@H](CC(=O)O)NC(=O)[C@H](CC(=O)O)NC1=O)NC(=O)[C@H](CC(C)(C)C)NC(=O)[C@H](CC(=O)O)NC2=O (stereo partly drawn) [I-1475, Ac-PL3-Asp-Npg-B5-Asp-Asp-Ala-[Me3AdamantC]-Lys-Phe-Leu-PyrS2-3Thi-BztA-Gln-NH2]	113		
CC(=O)N1CCC[C@]12CC=CCCCC1(CCCC=CCCCCCC[C@@](C)(C(=O)N[C@@H](Cc3ccccc3)C(=O)N[C@@H](Cc3csc4ccccc34)C(=O)N[C@@H](CCC(N)=O)C(N)=O)NC(=O)[C@H](CC(C)C)NC(=O)[C@H](Cc3ccccc3)NC(=O)[C@H](C)NC(=O)[C@H](C)NC(=O)[C@H](CCC(=O)O)NC(=O)[C@H](CC(=O)O)NC1=O)NC(=O)[C@H](CCC(N)=O)NC(=O)[C@H](CC(=O)O)NC2=O (stereo partly drawn) [I-1541, Ac-PL3-Asp-Gln-B5-Asp-Glu-Ala-Ala-Phe-Leu-S8-Phe-BztA-Gln-NH2]	39		
CC(=O)N1CCC[C@]12CC=CCCCC1(CCCC=CCCCOC(=O)N3CC[C@@](C(=O)N[C@@H](Cc4ccccc4)C(=O)N[C@@H](Cc4csc5ccccc45)C(=O)N[C@@H](CCC(N)=O)C(N)=O)(C3)NC(=O)[C@H](CC(N)=O)NC(=O)[C@H](Cc3ccccc3)NC(=O)[C@H](C)NC(=O)[C@H](C)NC(=O)[C@H]([C@@H](C)O)NC(=O)[C@H](CC(N)=O)NC1=O)NC(=O)[C@H](CC(C)(C)C)NC(=O)[C@H](CC(=O)O)NC2=O (stereo partly drawn) [I-1735, Ac-PL3-Asp-Npg-B5-Asn-Thr-Ala-Ala-Phe-Asn-PyrS2-Phe-BztA-Gln-NH2]	667		
CC(=O)N1CCC[C@]12CC=CCCCC1(CCCC=CCCCOC(=O)N3CC[C@@](C(=O)N[C@@H](Cc4cccc(C(N)=O)c4)C(=O)N[C@@H](Cc4csc5ccccc45)C(=O)N[C@@H](CCO)C(N)=O)(C3)NC(=O)[C@H](CC(C)C)NC(=O)[C@H](Cc3ccccc3)NC(=O)[C@H](C)NC(=O)[C@H](CCCCNC(C)C)NC(=O)[C@H](CCC(N)=O)NC(=O)[C@H](CC(=O)O)NC1=O)NC(=O)[C@H](CC1CCCCC1)NC(=O)[C@H](CC(N)=O)NC2=O (stereo partly drawn) [I-2166, Ac-PL3-Asn-Cha-B5-Asp-Gln-iPrLys-Ala-Phe-Leu-PyrS2-3cbmf-BztA-Hse-NH2]	1590		
CC(=O)N1CCC[C@]12CCCCC1(CCCCCCOC(=O)N3CC[C@@](C(=O)N[C@@H](Cc4ccsc4)C(=O)N[C@@H](Cc4csc5ccccc45)C(=O)N[C@@H](CCC(N)=O)C(N)=O)(C3)NC(=O)[C@H](CC(C)C)NC(=O)[C@H](Cc3ccccc3)NC(=O)[C@H](C)NC(=O)[C@H](C)NC(=O)[C@H](CC(=O)O)NC(=O)[C@H](CC(=O)O)NC1=O)NC(=O)[C@H](CC(C)(C)C)NC(=O)[C@H](CC(=O)O)NC2=O (stereo partly drawn) [I-2160, Ac-PL3-Asp-Npg-B3-Asp-Asp-Ala-Ala-Phe-Leu-PyrS2-3Thi-BztA-Gln-NH2]	1240		
CC(=O)N1CCC[C@]12CC=CCCCC1(CCCC=CCCCOC(=O)N3CC[C@@](C(=O)N[C@@H](Cc4ccsc4)C(=O)N[C@@H](Cc4csc5ccccc45)C(=O)N[C@@H](CCC(N)=O)C(N)=O)(C3)NC(=O)[C@H](CC(C)C)NC(=O)[C@H](Cc3ccccc3)NC(=O)[C@H](C)NC(=O)[C@H](C)NC(=O)[C@H](CC(=O)O)NC(=O)[C@H](CC(=O)OCCSSc3ccccc3)NC1=O)NC(=O)[C@H](CC(C)(C)C)NC(=O)[C@H](CC(=O)O)NC2=O (stereo partly drawn) [I-1955, Ac-PL3-Asp-Npg-B5-[EtSSPh]AspE-Asp-Ala-Ala-Phe-Leu-PyrS2-3Thi-BztA-Gln-NH2]		1200	
CC(=O)N1CCC[C@]12CC=CCCCC1(CCCC=CCCCOC(=O)N3CC[C@@](C(=O)N[C@@H](Cc4ccsc4)C(=O)N[C@@H](Cc4csc5ccccc45)C(=O)N[C@@H](CC(C)C)C(N)=O)(C3)NC(=O)[C@H](CC(N)=O)NC(=O)[C@H](Cc3ccccc3)NC(=O)[C@H](C)NC(=O)C(C)(C)NC(=O)[C@H]([C@@H](C)O)NC(=O)[C@H](CC(N)=O)NC1=O)NC(=O)[C@H](CC(C)(C)C)NC(=O)[C@H](CC(=O)O)NC2=O (stereo partly drawn) [I-2479, Ac-PL3-Asp-Npg-B5-Asn-Thr-Aib-Ala-Phe-Asn-PyrS2-3Thi-BztA-Leu-NH2]	627		
CC(=O)N1CCC[C@H]1C(=O)N[C@]1(C)CCCCCCCCC2(CCCCCCCCOC(=O)N3CC[C@@](C(=O)N[C@@H](Cc4ccccc4C(F)(F)F)C(=O)N[C@@H](Cc4csc5ccccc45)C(=O)N[C@@H](CCC(N)=O)C(N)=O)(C3)NC(=O)[C@H](CC(C)C)NC(=O)[C@H](Cc3ccccc3)NC(=O)[C@H](C)NC(=O)[C@H](C)NC(=O)[C@H](Cc3cccc(C(=O)O)c3)NC(=O)[C@H](CC(=O)O)NC2=O)NC(=O)[C@H](CC(C)(C)C)NC(=O)[C@H](CC(=O)O)NC1=O (stereo partly drawn) [I-2573, Ac-Pro-R5-Asp-Npg-B5-Asp-3COOHF-Ala-Ala-Phe-Leu-PyrS2-2F3MeF-BztA-Gln-NH2]	234		
CC(=O)N1CCC[C@]12CC=CCCCC1(CCCC=CCCCOC(=O)N3CC(C(=O)N[C@@H](Cc4ccccc4C(F)(F)F)C(=O)N[C@@H](Cc4csc5ccccc45)C(=O)N[C@@H](CCC(N)=O)C(N)=O)(C3)NC(=O)[C@H](CC(C)C)NC(=O)[C@H](Cc3ccccc3)NC(=O)[C@H](C)NC(=O)C(C)(C)NC(=O)[C@H](Cc3cccc(C(=O)O)c3)NC(=O)[C@H](CC(=O)O)NC1=O)NC(=O)[C@H](CC(C)(C)C)NC(=O)[C@H](CC(=O)O)NC2=O (stereo partly drawn) [I-2614, Ac-PL3-Asp-Npg-B5-Asp-3COOHF-Aib-Ala-Phe-Leu-Az2-2F3MeF-BztA-Gln-NH2]	97		
CCCC[C@@H]1NC(=O)[C@H](CC(=O)O)NC(=O)[C@]2(CC=CCCCC3(CCCC=CCCCOC(=O)N4CC[C@@](C(=O)N[C@@H](Cc5ccccc5Cl)C(=O)N[C@@H](Cc5csc6ccccc56)C(=O)N[C@@H](CC(C)C)C(N)=O)(C4)NC(=O)[C@H](CC(C)C)NC(=O)[C@H](Cc4ccccc4)NC(=O)[C@H](C)NC(=O)[C@H](C)NC(=O)[C@H](CC(=O)O)NC(=O)[C@H](CC(=O)O)NC3=O)NC1=O)CCCN2C(C)=O (stereo partly drawn) [I-1421, Ac-PL3-Asp-nLeu-B5-Asp-Asp-Ala-Ala-Phe-Leu-PyrS2-2C1F-BztA-Leu-NH2]	134		134
CCOC(=O)CC[C@@H]1NC(=O)[C@H](CC(=O)O)NC(=O)C2(CCCC=CCCCOC(=O)N3CC[C@@](C(=O)N[C@@H](Cc4ccsc4)C(=O)N[C@@H](Cc4csc5ccccc45)C(=O)N[C@@H](CCC(N)=O)C(N)=O)(C3)NC(=O)[C@H](CC(C)C)NC(=O)[C@H](Cc3ccccc3)NC(=O)[C@H](C)NC(=O)[C@H](C)NC1=O)CCCC=CC[C@]1(CCCN1C(C)=O)C(=O)N[C@@H](CC(=O)O)C(=O)N[C@@H](CC(C)(C)C)C(=O)N2 (stereo partly drawn) [I-2365, Ac-PL3-Asp-Npg-B5-Asp-[Et]GluE-Ala-Ala-Phe-Leu-PyrS2-3Thi-BztA-Gln-NH2]	3440		
CC(=O)NCCCC[C@H](NC(=O)[C@H](Cc1csc2ccccc12)NC(=O)[C@H](Cc1ccsc1)NC(=O)[C@]12CCN(C1)C(=O)OCCCCCCCCC1(CCCCCC[C@]3(CCCN3C(C)=O)C(=O)N[C@@H](CC(=O)O)C(=O)N[C@@H](CC(C)(C)C)C(=O)N1)C(=O)N[C@@H](CC(=O)O)C(=O)N[C@@H](CN(CC(=O)O)CC(F)(F)F)C(=O)N[C@@H](C)C(=O)N[C@@H](C)C(=O)N[C@@H](Cc1ccccc1)C(=O)N[C@@H](CC(C)C)C(=O)N2)C(N)=O (stereo partly drawn) [I-1719, Ac-PL3-Asp-Npg-B5-Asp-TfeGA-Ala-Ala-Phe-Leu-PyrS2-3Thi-BztA-AcLys-NH2]	187		
CC(=O)N1CCC[C@]12CC=CCCCCC1(CCCCC=CCOC(=O)N3CC[C@@](C(=O)N[C@@H](Cc4ccccc4C(F)(F)F)C(=O)N[C@@H](Cc4csc5ccccc45)C(=O)N[C@@H](C)C(N)=O)(C3)NC(=O)[C@H](CC(C)C)NC(=O)[C@H](Cc3ccccc3)NC(=O)[C@H](C)NC(=O)[C@H](CCC(N)=O)NC(=O)[C@H](Cc3cccc(C(=O)O)c3)NC(=O)[C@H](CC(=O)O)NC1=O)NC(=O)[C@H](CC(C)(C)C)NC(=O)[C@H](CC(=O)O)NC2=O (stereo partly drawn) [I-2506, Ac-PL3-Asp-Npg-B6-Asp-3COOHF-Gln-Ala-Phe-Leu-PyrS-2F3MeF-BztA-Ala-NH2]	332		
